From ChEMBL document CHEMBL1125573 (J Med Chem, 1992)

Legend:
[1] = target: Dopamine D2 receptor/Serotonin 2 (5-HT2) receptor (Rattus norvegicus) (UniProt P61169+P30994+P08909+P14842); experiment: Relative binding affinity for dopamine D2 and 5-HT2 receptors; assay type: protein assay
[2] = target: T1, D(2) dopamine receptor (Rattus norvegicus, UniProt P61169); experiment: Displacement of [3H]spiperone from dopamine receptor D2
[3] = target: Serotonin 2 (5-HT2) receptor (Rattus norvegicus, UniProt P30994+P08909+P14842); experiment: The compound was tested in vitro for binding affinity towards 5-hydroxytryptamine 2 receptor by displacing [125]I-LSD radioligand; assay type: protein assay
[4] = target: T1, D(2) dopamine receptor; experiment: Binding affinity towards Dopamine receptor D2 by displacing [3H]spiperone

Chain of Dopamine D2 receptor/Serotonin 2 (5-HT2) receptor (Rattus norvegicus) (P08909 whole entry, looked up): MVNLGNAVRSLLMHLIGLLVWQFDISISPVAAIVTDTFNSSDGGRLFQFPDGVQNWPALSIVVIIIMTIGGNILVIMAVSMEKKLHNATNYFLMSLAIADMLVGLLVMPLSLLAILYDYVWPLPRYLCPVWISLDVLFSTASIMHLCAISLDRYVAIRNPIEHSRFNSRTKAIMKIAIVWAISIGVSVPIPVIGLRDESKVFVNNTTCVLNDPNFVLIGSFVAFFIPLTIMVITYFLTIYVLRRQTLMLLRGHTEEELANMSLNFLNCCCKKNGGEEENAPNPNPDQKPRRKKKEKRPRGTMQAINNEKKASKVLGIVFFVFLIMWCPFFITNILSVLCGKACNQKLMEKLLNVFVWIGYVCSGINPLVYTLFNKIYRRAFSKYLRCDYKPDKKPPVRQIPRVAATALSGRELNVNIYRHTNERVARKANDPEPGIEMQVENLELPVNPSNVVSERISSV
Chain of Dopamine D2 receptor/Serotonin 2 (5-HT2) receptor (Rattus norvegicus) (P14842 whole entry, looked up): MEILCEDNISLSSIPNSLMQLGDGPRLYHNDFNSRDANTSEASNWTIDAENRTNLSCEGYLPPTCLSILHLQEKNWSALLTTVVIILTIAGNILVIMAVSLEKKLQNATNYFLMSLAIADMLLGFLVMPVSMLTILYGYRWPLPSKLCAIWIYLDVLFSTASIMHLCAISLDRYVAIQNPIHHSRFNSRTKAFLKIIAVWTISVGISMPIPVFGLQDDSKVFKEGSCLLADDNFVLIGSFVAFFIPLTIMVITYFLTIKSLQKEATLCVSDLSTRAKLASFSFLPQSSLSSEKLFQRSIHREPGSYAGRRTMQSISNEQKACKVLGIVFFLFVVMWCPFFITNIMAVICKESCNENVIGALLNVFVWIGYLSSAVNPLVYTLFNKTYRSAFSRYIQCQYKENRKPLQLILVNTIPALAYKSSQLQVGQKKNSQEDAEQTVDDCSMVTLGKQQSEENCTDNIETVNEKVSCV
Chain of Dopamine D2 receptor/Serotonin 2 (5-HT2) receptor (Rattus norvegicus) (P30994 whole entry, looked up): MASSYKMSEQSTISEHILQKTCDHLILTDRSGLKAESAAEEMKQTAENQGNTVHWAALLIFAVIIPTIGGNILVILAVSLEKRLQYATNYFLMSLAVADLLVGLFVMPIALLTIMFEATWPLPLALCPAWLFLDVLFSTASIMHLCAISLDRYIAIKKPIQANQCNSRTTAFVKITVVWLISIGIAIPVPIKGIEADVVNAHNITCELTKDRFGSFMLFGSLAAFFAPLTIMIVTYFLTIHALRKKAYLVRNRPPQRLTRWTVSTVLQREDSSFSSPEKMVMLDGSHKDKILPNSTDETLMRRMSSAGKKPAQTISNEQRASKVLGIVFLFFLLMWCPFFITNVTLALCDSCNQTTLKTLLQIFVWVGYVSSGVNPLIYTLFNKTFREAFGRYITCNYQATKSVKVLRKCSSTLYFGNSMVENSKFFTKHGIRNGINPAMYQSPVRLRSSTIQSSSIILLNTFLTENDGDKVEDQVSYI
Chain of Dopamine D2 receptor/Serotonin 2 (5-HT2) receptor (Rattus norvegicus) (P61169 whole entry, looked up): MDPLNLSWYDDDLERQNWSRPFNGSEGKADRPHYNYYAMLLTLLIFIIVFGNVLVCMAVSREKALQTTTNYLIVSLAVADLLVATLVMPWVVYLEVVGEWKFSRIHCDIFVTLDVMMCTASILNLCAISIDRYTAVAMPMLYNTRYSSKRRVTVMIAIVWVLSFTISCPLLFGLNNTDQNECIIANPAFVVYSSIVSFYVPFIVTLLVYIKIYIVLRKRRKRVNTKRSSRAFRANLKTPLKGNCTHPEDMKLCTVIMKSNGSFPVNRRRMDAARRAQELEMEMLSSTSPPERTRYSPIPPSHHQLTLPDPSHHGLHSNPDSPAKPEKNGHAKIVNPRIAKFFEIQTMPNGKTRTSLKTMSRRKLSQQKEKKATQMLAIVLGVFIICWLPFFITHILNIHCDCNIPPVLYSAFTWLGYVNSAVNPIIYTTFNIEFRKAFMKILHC
T1 sequence (P61169 whole entry): as the sequence (P61169 whole entry, looked up) above

Row | Structure (SMILES) | Ratio [1] | Ki [2] | Ki [3] | Ki [4]
1 | CC(C)CCN1CN(c2ccccc2)C2(CCN(CCCC(=O)c3ccc(F)cc3)CC2)C1=O | 21 | 0.063 nM | 1.3 nM | 
2 | CCCCCN1CN(c2ccccc2)C2(CCN(CCCC(=O)c3ccc(F)cc3)CC2)C1=O | 18 | 0.062 nM | 1.1 nM | 
3 | CCN1CN(c2ccccc2)C2(CCN(CCCC(=O)c3ccc(F)cc3)CC2)C1=O |  |  | 0.31 nM | 0.057 nM
4 | O=C(CCCN1CCC2(CC1)C(=O)N(Cc1ccc([N+](=O)[O-])cc1)CN2c1ccccc1)c1ccc(F)cc1 |  |  | 14 nM | 0.119 nM
5 | O=C(CCCN1CCC2(CC1)C(=O)N(Cc1ccccc1[N+](=O)[O-])CN2c1ccccc1)c1ccc(F)cc1 |  |  | 0.68 nM | 0.12 nM
6 | CCCN1CN(c2ccccc2)C2(CCN(CCCC(=O)c3ccc(F)cc3)CC2)C1=O | 3.3 | 0.029 nM | 0.096 nM | 
7 | CCCCN1CN(c2ccccc2)C2(CCN(CCCC(=O)c3ccc(F)cc3)CC2)C1=O | 11 | 0.036 nM | 0.41 nM | 
8 | Cc1ccccc1CN1CN(c2ccccc2)C2(CCN(CCCC(=O)c3ccc(F)cc3)CC2)C1=O | 290 | 0.033 nM | 9.6 nM | 
9 | O=C(CCCN1CCC2(CC1)C(=O)N(Cc1cccc(F)c1)CN2c1ccccc1)c1ccc(F)cc1 | 230 | 0.023 nM | 5.3 nM | 
10 | O=C(CCCN1CCC2(CC1)C(=O)N(Cc1ccc(F)cc1)CN2c1ccccc1)c1ccc(F)cc1 | 300 | 0.069 nM | 21 nM | 
11 | COc1ccc(CN2CN(c3ccccc3)C3(CCN(CCCC(=O)c4ccc(F)cc4)CC3)C2=O)cc1 |  |  | 12 nM | 0.087 nM
12 | O=C(CCCN1CCC2(CC1)C(=O)N(Cc1ccccc1)CN2c1ccccc1)c1ccc(F)cc1 | 140 | 0.023 nM | 3.2 nM | 
13 | Cc1ccc(CN2CN(c3ccccc3)C3(CCN(CCCC(=O)c4ccc(F)cc4)CC3)C2=O)cc1 |  |  | 37 nM | 0.067 nM
14 | O=C(CCCN1CCC2(CC1)C(=O)N(Cc1ccccc1I)CN2c1ccccc1)c1ccc(F)cc1 |  |  | 19 nM | 0.063 nM
15 | CC(C)CN1CN(c2ccccc2)C2(CCN(CCCC(=O)c3ccc(F)cc3)CC2)C1=O | 3.3 | 0.039 nM | 0.13 nM | 
16 | O=C(CCCN1CCC2(CC1)C(=O)N(Cc1ccccc1F)CN2c1ccccc1)c1ccc(F)cc1 | 100 | 0.043 nM | 4.4 nM | 
17 | O=C(CCCN1CCC2(CC1)C(=O)N(CCc1ccccc1)CN2c1ccccc1)c1ccc(F)cc1 | 29 | 0.035 nM | 1 nM | 
18 | CN1CN(c2ccccc2)C2(CCN(CCCC(=O)c3ccc(F)cc3)CC2)C1=O [MESPIPERONE] |  |  | 0.55 nM | 0.118 nM
19 | O=C(CCCN1CCC2(CC1)C(=O)N(Cc1ccc(I)cc1)CN2c1ccccc1)c1ccc(F)cc1 |  |  | 89 nM | 0.213 nM
20 | COc1ccccc1CN1CN(c2ccccc2)C2(CCN(CCCC(=O)c3ccc(F)cc3)CC2)C1=O |  |  | 1.9 nM | 0.047 nM
